Where “and” joins values, the source holds several entries; their conditions need not be identical. Equal entries are not always repeated. Where two headings read alike, the source gives them in different places. Values belong to the compound of their own block, whether it stands above or below them.
Tests used:
gastric pH = details: cited from earlier work; for % time pH > 4.0 over a period of 24 h: 40 mg dose group, healthy subjects
gastric acid secretion = details: lumen-perfused rat model, among JP-1366, vonoprazan, and tegoprazan; cited from earlier work
mouse hepatocytes = experiment: Metabolic stability of JP-1366 in mouse hepatocytes; format: in vitro ADME; details: mouse hepatocytes
Procedure: (§1) According to the manufacturer’s protocol, cryopreserved human, dog, monkey, mouse, and rat hepatocytes were purified and recovered. […] The metabolic reaction in each sample well was quenched by adding 120 μL of ice-cold acetonitrile.
(§2) Log-transformed relative responses of JP-1366 were plotted against incubation time, thereby obtaining the elimination slope (k) from the linear regression analysis. […] (1) t1 /2(min)=ln2/kelimination slope (2) Clint(mL/min/kg)=ln2/t1/2×mL incubation/hepatocyte (10^6 cells)×B×10^6 cells/g liver×A g liver/kg BW (3) Clhep(mL/min/kg)=Qh×Clint/Qh+Clint (4) HER=Clhep/Qh
(§3) Here, A means the liver weight parameters and has values of 25.7, 32, 30, 87.5, and 40; B means the cell number parameters and has values of 139, 215, 120, 135, and 117; Qh represents hepatic blood flow and has values of 20.7, 30.9, 43.6, 90, and 55.2 mL/min/kg for humans, dogs, monkeys, mice, and rats, respectively. Hepatic extraction ratios (HERs) of ≤0.25, 0.25–0.75, and ≥0.75 were regarded as low, moderate, and high, respectively.

[1] = as above; format: in vitro ADME; details: cryopreserved mouse hepatocytes
Procedure: as §1, §2, §3

[2] = Metabolic stability of JP-1366 in dog hepatocytes; format: in vitro ADME; details: cryopreserved dog hepatocytes
Procedure: as §1, §2, §3

dog hepatocytes = experiment: Metabolic stability of JP-1366 in dog hepatocytes; format: in vitro ADME; details: dog hepatocytes
Procedure: as §1, §2, §3

GERD lesion = details: rats, compared with vonoprazan; cited from earlier work
[3] = tested on: histamine-stimulated gastric acid secretion; design: method as in PMID 36504556; details: Heidenhain pouch dog model; cited from earlier work
[4] = tested on: human, dog, monkey, mouse, and rat hepatocytes; experiment: In vitro metabolic profiling of JP-1366 in hepatocytes; format: in vitro ADME; details: 10 µM JP-1366, 60 min; H human, D dog, Mk monkey, M mouse, R rat
Procedure: Cryopreserved human, dog, monkey, mouse, and rat hepatocytes were purified and recovered according to the manufacturer’s protocol. […] The metabolic reaction in each sample well was quenched by adding 120 μL of ice-cold acetonitrile.
MS spectra were obtained in positive-ion mode using electrospray ionization under optimized conditions as follows: capillary temperature, 350 °C; sheath gas flow rate, 40 (arbitrary units); aux gas flow rate, 10 (arbitrary units); and aux gas heater temperature, 350 °C. Full MS scan with data-dependent MS/MS was performed from m/z 100 to m/z 1000.

[5] = molecular target: T1, human cDNA-expressed CYP2C8 (Homo sapiens, UniProt P10632); experiment: Enzyme kinetics of JP-1366 metabolism in cDNA-expressed CYP2C8; format: in vitro ADME
T1 construct: purchased Corning Life Sciences
T1 sequence (P10632 1-490): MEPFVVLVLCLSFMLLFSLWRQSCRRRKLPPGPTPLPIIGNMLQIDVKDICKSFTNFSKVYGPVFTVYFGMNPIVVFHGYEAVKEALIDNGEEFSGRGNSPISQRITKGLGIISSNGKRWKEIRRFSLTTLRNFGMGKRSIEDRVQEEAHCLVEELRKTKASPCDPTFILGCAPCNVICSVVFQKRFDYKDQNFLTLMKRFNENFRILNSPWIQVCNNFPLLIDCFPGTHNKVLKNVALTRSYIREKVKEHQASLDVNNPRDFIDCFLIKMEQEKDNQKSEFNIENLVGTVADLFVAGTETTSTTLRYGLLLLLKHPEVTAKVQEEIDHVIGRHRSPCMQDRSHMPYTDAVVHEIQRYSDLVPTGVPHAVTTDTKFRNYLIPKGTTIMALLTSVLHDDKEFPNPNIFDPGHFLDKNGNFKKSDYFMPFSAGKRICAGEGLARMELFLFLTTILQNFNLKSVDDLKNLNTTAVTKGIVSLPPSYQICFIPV
Procedure: (§4) The reaction was initiated by adding 5 μL of NADPH-generating system in triplicate, and the mixture was further incubated for 30 min at 37 °C in a shaking water bath.
(§5) The concentrations of the metabolites were quantitated, and their formation rates (pmol/mg protein/min) were calculated by dividing the amounts of metabolites formed from the incubation with human liver microsomes and human cDNA-expressed CYP or UGT enzymes by the incubation time.

[6] = molecular target: T2, human cDNA-expressed CYP3A4 (Homo sapiens, UniProt P08684); experiment: Enzyme kinetics of JP-1366 metabolism in cDNA-expressed CYP3A4; format: in vitro ADME
T2 construct: purchased Corning Life Sciences
Procedure: as §4, §5

CYP3A4/5 = experiment: Combined contribution of CYP3A4/5 to formation of major JP-1366 metabolites; format: in vitro ADME, human; details: sum of CYP3A4 and CYP3A5 contributions
Procedure: as §4, §5

[7] = tested on: human liver microsomes (HLM); experiment: Enzyme kinetics of JP-1366 metabolism in human liver microsomes; format: in vitro ADME
Procedure: as §4, §5

[8] = molecular target: T3, human cDNA-expressed CYP3A5 (Homo sapiens, UniProt P20815); experiment: Enzyme kinetics of JP-1366 metabolism in cDNA-expressed CYP3A5; format: in vitro ADME
T3 construct: purchased Corning Life Sciences
Procedure: as §4, §5

[9] = formation of the labelled metabolite from JP-1366, CYP3A4
[10] = formation of the labelled metabolite from JP-1366, CYP3A5

T3 sequence (P20815 whole entry): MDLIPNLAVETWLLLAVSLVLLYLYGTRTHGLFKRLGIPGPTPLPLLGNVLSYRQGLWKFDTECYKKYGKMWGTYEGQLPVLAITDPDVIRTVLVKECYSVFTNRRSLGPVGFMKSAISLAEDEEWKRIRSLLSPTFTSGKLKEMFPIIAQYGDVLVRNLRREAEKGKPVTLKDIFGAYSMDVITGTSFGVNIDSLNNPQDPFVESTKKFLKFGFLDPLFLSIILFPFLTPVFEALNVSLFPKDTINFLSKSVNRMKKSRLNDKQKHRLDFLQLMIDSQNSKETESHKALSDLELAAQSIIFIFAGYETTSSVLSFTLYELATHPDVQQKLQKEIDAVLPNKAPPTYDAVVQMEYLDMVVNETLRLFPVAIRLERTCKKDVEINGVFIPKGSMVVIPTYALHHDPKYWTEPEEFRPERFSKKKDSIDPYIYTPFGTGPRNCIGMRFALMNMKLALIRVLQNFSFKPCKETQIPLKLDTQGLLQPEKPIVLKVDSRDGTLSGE
T2 sequence (P08684 whole entry): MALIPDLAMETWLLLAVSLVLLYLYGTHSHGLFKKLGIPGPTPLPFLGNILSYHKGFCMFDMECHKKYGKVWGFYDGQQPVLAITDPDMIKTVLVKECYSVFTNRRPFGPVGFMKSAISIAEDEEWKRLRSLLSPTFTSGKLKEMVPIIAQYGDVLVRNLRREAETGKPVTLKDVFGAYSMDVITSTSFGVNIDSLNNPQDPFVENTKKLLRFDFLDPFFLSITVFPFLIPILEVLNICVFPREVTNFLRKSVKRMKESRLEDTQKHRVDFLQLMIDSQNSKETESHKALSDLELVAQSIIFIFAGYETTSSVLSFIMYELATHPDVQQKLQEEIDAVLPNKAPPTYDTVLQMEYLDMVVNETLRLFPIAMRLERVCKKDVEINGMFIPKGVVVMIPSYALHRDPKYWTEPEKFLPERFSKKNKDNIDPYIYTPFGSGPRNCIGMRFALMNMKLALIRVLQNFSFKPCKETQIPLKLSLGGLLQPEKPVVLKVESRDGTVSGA

CLhep (mouse hepatocytes): 75.3 mL/min/kg
HER (mouse hepatocytes): 0.84
CLint scaled at 1 µM ([1]; mouse hepatocytes, scaled with physiological parameters): 461 mL/min/kg
half-life at 1 µM ([1]; mouse): 0.987 h
CLint scaled at 1 µM ([2]; dog hepatocytes, scaled with physiological parameters): 150 mL/min/kg
half-life at 1 µM ([2]; dog): 1.06 h
CLhep (dog hepatocytes): 25.6 mL/min/kg
HER (dog hepatocytes): 0.83
SMILES: Cc1cccc(C)c1CNc1cc(C(=O)N2CCC2)cn2c(C)c(C)nc12 [JP-1366, 1-azetidinyl(8-(((2,6-dimethylphenyl)methyl)amino)-2,3-dimethylimidazo(1,2-a)pyridin-6-yl)methanone]
% time pH > 4.0 over a period of 24 h (gastric pH; MAD): 89.28 ± 9.12% and 89.28% ± 9.12%
% time pH > 4.0 over a period of 24 h (gastric pH; SAD): 91.84% ± 4.06%
% time pH > 4 at nighttime (gastric pH; repeated 40 mg dose): 89.28% ± 9.12%
gastric acid secretion inhibitory effect (gastric acid secretion): fastest-acting and superior gastric acid secretion inhibitory effect
GERD lesion inhibition rates (GERD lesion): greater GERD lesion inhibition rates
inhibition of histamine-stimulated gastric acid secretion [3]: equal to or higher than vonoprazan

Hepatocytes (species in which the metabolite was found) [4]: H, D, Mk, M, R
CLint ([5]; formation of the labelled metabolite from JP-1366, CYP2C8): 0.031 μL/min/pmol CYP
Contribution (%) ([5]; relative contribution of CYP2C8 to formation of the labelled metabolite): 3.7%
Ki ([5]; substrate inhibition kinetics, formation of the labelled metabolite, CYP2C8): 197 µM
CLint [6, 9]: 0.35 μL/min/pmol CYP
n (Hill coefficient) [6, 9]: 2.9
Contribution (%) ([6]; relative contribution of CYP3A4 to formation of the labelled metabolite): 17.3%
contribution of CYP3A4/5 to formation of the metabolite from JP-1366 (CYP3A4/5): 85.9%
Vmax ([7]; formation of the labelled metabolite from JP-1366, HLM): 826.1 pmol/min/mg protein
Ki ([7]; substrate inhibition kinetics, formation of the labelled metabolite, HLM): 96.5 µM
CLint [8, 10]: 0.33 μL/min/pmol CYP
n (Hill coefficient) [8, 10]: 1.5
Contribution (%) ([8]; relative contribution of CYP3A5 to formation of the labelled metabolite): 68.6%
SMILES: Cc1cccc(CO)c1CNc1cc(C(=O)N2CCC2)cn2c(C)c(C)nc12 [M1, azetidin-1-yl(8-((2-(hydroxymethyl)-6-methyl-benzyl)amino)-2,3-dimethylimidazo[1,2-a]pyridin-6-yl)methanone]

From PMC11207335, “In Vitro Metabolism and Transport Characteristics of Zastaprazan” (Pharmaceutics, 2024)
